According to patent US20230123334A1, “AMINO LIPID COMPOUND, PREPARATION METHOD THEREFOR, AND APPLICATION THEREOF” (SHENZHEN SHENXIN BIOTECHNOLOGY CO., LTD., priority 2020, published 2023):

Legend:
[1] = system: HEK293 cells; experiment: Preliminary screening as DNA vectors, GFP transfection of HEK293 cells; format: cell-based; conditions: HEK293 cells; lipid/DOPE liposome with 75 ng plasmid DNA (psin-EGFP-IRES-Puro); number of cells expressing GFP divided by total number of nuclei (Hoechst)
How it was run: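 HEK293 cells in DMEM/10% FBS transfected with 75 ng EGFP plasmid per well complexed with amino lipid/DOPE liposomes in pH 5.6 sodium acetate. Hoechst nuclear stain added 20-24 h post-transfection, then cells cultured another 20-24 h. Confocal imaging gives GFP-positive cells as % of total nuclei.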

[2] = system: HEK293 cells; experiment: Preliminary screening as mRNA vectors, EGFP mRNA transfection of HEK293 cells; format: cell-based; conditions: HEK293 cells, 96-well plates, EGFP mRNA 50 ng per well; percentage of GFP fluorescent cells relative to total number of cells (Hoechst)
How it was run: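 HEK293 cells in DMEM plus 10% FBS transfected in 96-well format with 50 ng EGFP mRNA per well; Lipofectamine2000 served as positive control. Read-out is the percentage of GFP-fluorescent cells among total cells, counted by Hoechst nuclear stain.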

Compound | Absolute DNA transfection efficiency in HEK293 cells [1] [%] | Absolute mRNA transfection efficiency in HEK293 cells [2] [%]
CCCCCCCCCCCCNc1nc(NCCCCCC)nc(NCCN(C)C)n1 [Compound N6N12D1] | 0.0 | 0.2
CCCCCCCCCCCCCCCCCCSc1nc(NCCCN(C)C)nc(SCCCCCCCCCCC)n1 [Compound S11S18D6] | 3.6 | 6.0
CCCCCCCNc1nc(NCCCCCCC)nc(NCCCN2CCOCC2)n1 [Compound N7N7D8] | 0.0 | 0.0
CCCCCCCCCCCCCCCCCCNc1nc(NCCCCCCCCCCCC)nc(NCCN2CCOCC2)n1 [Compound N12N18D2] | 0.6 | 0.9
CCCCCCCCCCCCCCCCCCNc1nc(NCCCCCC)nc(NCCN2CCCCC2)n1 [Compound N6N18D4] | 2.0 | 0.2
CCCCCCCCCCCCCCCCNc1nc(NCCCCCCC)nc(NCCN2CCCCC2)n1 [Compound N7N16D4] | 0.0 | 0.0
CCCCCCCCCCCCCCCCNc1nc(NCCCCCCCC)nc(NCCN2CCOCC2)n1 [Compound N8N16D2] | 0.8 | 0.2
CCCCCCCCCCCCCCCNc1nc(NCCCCCCCCCCCCCCC)nc(NCCN2CCN(C)CC2)n1 [Compound N15N15D5] | 0.9 | 0.0
CCCCCCCCCCCCN(CCCCCCCCCCCC)c1nc(NCCCCCCCC)nc(NCCN2CCN(C)CC2)n1 [N8^2N12D5] | 0.0 | 0.4
CCCCCCCCCCCCCCCCCCNc1nc(NCCCCCCCCC)nc(NCCN2CCOCC2)n1 [Compound N9N18D2] | 3.6 | 25.3
CCCCCCCCCCCCCCCCCCNc1nc(NCCCCCCCCCCCCCCCC)nc(NCCCN2CCN(C)CC2)n1 [Compound N16N18D9] | 0.0 | 0.0
CCCCCCCCCCCCCCCNc1nc(NCCCCCCCCCCC)nc(NCCN(CC)CC)n1 [Compound N11N15D7] | 0.2 | 0.0
CCCCCCCCCCCCCCCCNc1nc(NCCCCCCCCCCCCC)nc(NCC2CCN(C)CC2)n1 [Compound N13N16D10] | 0.0 | 1.1
CCCCCCCCCCCCCNc1nc(NCCCCCCCCCCCCC)nc(NCCN(CC)CC)n1 [Compound N13N13D7] | 0.1 | 1.1
CCCCCCCCCCCCCCCCSc1nc(NCCCN2CCN(C)CC2)nc(SCCCCCCCCCC)n1 [Compound S10S16D9] | 7.8 | 19.9
CCCCCCCCCCCCCCCNc1nc(NCCCCCCC)nc(NCCN(CC)CC)n1 [Compound N7N15D7] | 0.0 | 0.0
CCCCCCCCCCCCSc1nc(NCCN2CCCC2)nc(SCCCCCCCCCCCC)n1 [Compound S12S12D3] | 2.1 | 11.0
CCCCCCCCCCCSc1nc(NCCN2CCCC2)nc(SCCCCCCCCCC)n1 [Compound S10S11D3] | 6.8 | 4.4
CCCCCCCCCCCCCCCCCCSc1nc(NCCCN2CCOCC2)nc(SCCCCCCCCCCCCCCCC)n1 [Compound S16S18D8] | 0.3 | 1.9
CCCCCCNc1nc(NCCCCCC)nc(NCCN(C)C)n1 [Compound N6N6D1] | 0.0 | 0.0
CCCCCCCCCCCCCNc1nc(NCCCCCCC)nc(NCCCN(C)C)n1 [Compound N7N13D6] | 1.6 | 2.3
CCCCCCCCCCCCN(CCCCCCCCCCCC)c1nc(NCCCCCC)nc(NCCCN2CCN(C)CC2)n1 [N6^2N12D9] | 0.0 | 0.0
CCCCCCCCCCCCCCCCSc1nc(NCCCN2CCN(C)CC2)nc(SCCCCCCCCCCCCCCCC)n1 [Compound S16S16D9] | 0.5 | 0.2
CCCCCCCNc1nc(NCCCCCCC)nc(NCCN(C)C)n1 [Compound N7N7D1] | 0.0 | 0.0

Compound | Absolute DNA transfection efficiency in HEK293 cells [1] [%] | Absolute mRNA transfection efficiency in HEK293 cells [2] [%]
CCCCCCCCCCCCN(CCCCCCCCCCCC)c1nc(NCCCCCCCCC)nc(NCCCN2CCOCC2)n1 [N9^2N12D8] | 0.0 | 0.3
CCCCCCCCCCCCSc1nc(NCCN2CCOCC2)nc(SCCCCCCCCCCCC)n1 [Compound S12S12D2] | 0.1 | 0.0
CCCCCCCCCCCNc1nc(NCCCCCCCC)nc(NCC2CCN(C)CC2)n1 [Compound N8N11D10] | 0.3 | 0.2
CCCCCCCCCCCNc1nc(NCCCCCCCCC)nc(NCC2CCN(C)CC2)n1 [Compound N9N11D10] | 0.0 | 0.0
CCCCCCCCNc1nc(NCCCCCCC)nc(NCCN(C)C)n1 [Compound N7N8D1] | 0.2 | 0.0
CCCCCCCCCCCCCNc1nc(NCCCCCCCCC)nc(NCCN(C)C)n1 [Compound N9N13D1] | 0.4 | 2.2
CCCCCCCCCCCCN(CCCCCCCCCCCC)c1nc(NCCCCCC)nc(NCCN(C)C)n1 [N6^2N12D1] | 0.6 | 0.0
CCCCCCCCCCCCCCCSc1nc(NCCN2CCN(C)CC2)nc(SCCCCCCCCCCCC)n1 [Compound S12S15D5] | 0.1 | 1.4
CCCCCCCCCCCNc1nc(NCCCCCCC)nc(NCCN(CC)CC)n1 [Compound N7N11D7] | 0.0 | 0.0
CCCCCCCCCNc1nc(NCCCCCCCCC)nc(NCCN2CCOCC2)n1 [Compound N9N9D2] | 0.0 | 0.1
CCCCCCCCCCCCSc1nc(NCCN(CC)CC)nc(SCCCCCCCCCC)n1 [Compound S10S12D7] | 7.2 | 0.0
CCCCCCCCCCCCCCCCNc1nc(NCCCCCC)nc(NCC2CCN(C)CC2)n1 [Compound N6N16D10] | 0.7 | 0.8
CCCCCCCNc1nc(NCCCCCC)nc(NCCCN2CCOCC2)n1 [Compound N6N7D8] | 0.0 | 0.0
CCCCCCCCCCCCCCCCSc1nc(NCC2CCN(C)CC2)nc(SCCCCCCCCCCCCCCC)n1 [Compound S15S16D10] | 0.6 | 0.6
CCCCCCCCCCCCCCCCNc1nc(NCCCCCC)nc(NCCCN(C)C)n1 [Compound N6N16D6] | 0.2 | 0.4
CCCCCCCCCCCCCCCNc1nc(NCCCCCCCC)nc(NCC2CCN(C)CC2)n1 [Compound N8N15D10] | 3.2 | 3.3
CCCCCCCCCCCCCCCCNc1nc(NCCCCCCCCCCCCC)nc(NCCN2CCCCC2)n1 [Compound N13N16D4] | 1.0 | 4.0
CCCCCCCCCCCCCCSc1nc(NCCCN(C)C)nc(SCCCCCCCCCCC)n1 [Compound S11S14D6] | 6.6 | 30.0
CCCCCCCCCCCCCCCCCCSc1nc(NCCN2CCCC2)nc(SCCCCCCCCCCCCCCCCCC)n1 [Compound S18S18D3] | 0.1 | 0.1
CCCCCCCCCCCCCCCCCCSc1nc(NCC2CCN(C)CC2)nc(SCCCCCCCC)n1 [Compound S8S18D10] | 19.3 | 59.6
CCCCCCCCCCCCCCCCNc1nc(NCCCCCCCCCCC)nc(NCCCN(C)C)n1 [Compound N11N16D6] | 0.2 | 1.4
CCCCCCCCCCCCCCCSc1nc(NCCCN2CCN(C)CC2)nc(SCCCCCCCCCCCCCCC)n1 [Compound S15S15D9] | 0.4 | 0.5
CCCCCCCCCCCCCCCCSc1nc(NCCN2CCN(C)CC2)nc(SCCCCCCCCCC)n1 [Compound S10S16D5] | 9.4 | 13.6
CCCCCCCCCCCCCCCCCCSc1nc(NCCN2CCCC2)nc(SCCCCCCCCC)n1 [Compound S9S18D3] | 13.9 | 35.8
